Test results: patent publication US20220324835A1 (Nurix Therapeutics, Inc., priority 2018, published 2022)

What was measured:
Cbl-b [1] = target: T1, Cbl-b (Homo sapiens, UniProt Q13191); assay: Cbl-b inhibition assay (Cbl-b activity assay, FRET, Biological Example 1; 100 mM NaCl, 60 nM Src kinase); format: biochemical; conditions: upper bound stated in text lists; read-out: IC50 values in the Cbl-b inhibition assay of Biological Example 1
Text: FIG. 1A and FIG. 1B show a series of diagrams depicting the activity assay utilized to assay inhibition of Cbl-b activity by a Cbl-b inhibitor. FIG. 1A: The activity assay mixture comprises an N-terminal biotinylated Avi-tagged Cbl-b, an E2 enzyme (i.e., UbcH5B) irreversibly conjugated to Bodipy-Fluorescein tagged ubiquitin (i.e., UbcH5B-Ub), a Src kinase, streptavidin-terbium, and assay buffer. Phosphorylation of Cbl-b by the Src kinase allows UbcH5B-Ub to bind to Cbl-b and bring the Bodipy-Fluorescein tagged ubiquitin in proximity to the streptavidin-terbium bound to the N-terminal biotinylated Avi-tagged Cbl-b. […] FIG. 1B: In the presence of a Cbl-b inhibitor, such as one described herein, Cbl-b is unable to bind UbcH5B-Ub. The lack of a FRET signal indicates Cbl-b is inhibited by the Cbl-b inhibitor. Ub indicates ubiquitin; N-Avi indicates biotinylated Avi-tag at the N-terminus of Cbl-b; inhibitor indicates Cbl-b inhibitor.
The lack of a FRET signal indicates Cbl-b is inhibited by the Cbl-b inhibitor. In FIG. 1A and FIG. 1B, Ub indicates ubiquitin; N-Avi indicates biotinylated Avi-tag at the N-terminus of Cbl-b; and inhibitor indicates Cbl-b inhibitor.

Cbl-b [2] = target: T1, Cbl-b; assay: Cbl-b activity assay (Cbl-b inhibition assay), TR-FRET of Cbl-b interaction with UbcH5B-Ub; format: biochemical; conditions: assay buffer with 100 mM NaCl, 60 nM Src kinase; read-out: Cbl-b activity IC50
Summary of the method: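 Compound-treated Cbl-b was incubated 1.5 h with Src kinase (60 nM final; 30 nM for asterisked values, which also used 50 mM instead of 100 mM NaCl), 1 mM ATP and 5 mM MgCl2. Binding to fluorescent Ub-loaded UbcH5B (C85K mutant) was then read by TR-FRET after 1 h more.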

T1 sequence (Q13191 36-427): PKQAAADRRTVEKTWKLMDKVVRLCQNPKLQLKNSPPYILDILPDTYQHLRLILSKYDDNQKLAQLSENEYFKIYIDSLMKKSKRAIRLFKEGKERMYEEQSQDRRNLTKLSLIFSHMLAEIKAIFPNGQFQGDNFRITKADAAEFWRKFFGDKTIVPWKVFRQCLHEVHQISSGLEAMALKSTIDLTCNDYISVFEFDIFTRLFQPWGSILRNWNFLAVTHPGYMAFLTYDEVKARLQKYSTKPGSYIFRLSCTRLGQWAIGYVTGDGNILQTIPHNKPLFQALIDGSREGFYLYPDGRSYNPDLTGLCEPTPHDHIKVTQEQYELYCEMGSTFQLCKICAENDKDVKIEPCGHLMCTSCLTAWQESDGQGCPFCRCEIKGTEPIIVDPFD

Row | Compound | IC50 (Cbl-b [1]) [nM] | IC50 (Cbl-b [2]) [nM]
1 | CC(Sc1nncn1C)c1cccc(N2Cc3ccc(C(C)(C)O)cc3C2=O)c1 (stereo not drawn) [Compound 165, 6-(1-hydroxy-1-methyl-ethyl)-2-[3-[1-[(4-methyl-1,2,4-triazol-3-yl)sulfanyl]ethyl]phenyl]isoindolin-1-one] | ≤ 10000 | 3000 to 10000
2 | CC(c1nncn1C)C1(c2cccc(N3Cc4c(cc(CN5CCC6(CC6)C5)cc4C(F)(F)F)C3=O)c2)COC1 (stereo not drawn) [Example 701, 6-((5-azaspiro[2.4]heptan-5-yl)methyl)-2-(3-(3-(1-(4-methyl-4H-1,2,4-triazol-3-yl)ethyl)oxetan-3-yl)phenyl)-4-(trifluoromethyl)isoindolin-1-one] | ≤ 1000 | 301 to 1000
3 | Cn1cnnc1CC1(c2cccc(N3Cc4c(cc(CN5CCc6ccncc6C5)cc4C(F)(F)F)C3=O)c2)COC1 [Example 638, 6-((3,4-dihydro-2,7-naphthyridin-2(1H)-yl)methyl)-2-(3-(3-((4-methyl-4H-1,2,4-triazol-3-yl)methyl)oxetan-3-yl)phenyl)-4-(trifluoromethyl)isoindolin-1-one] | ≤ 100 | < 100
4 | Cn1cnnc1CC1(c2cccc(N3Cc4c(cc(CN5Cc6cccc(C#N)c6C5)cc4C(F)(F)F)C3=O)c2)COC1 [Example 658, 2-((2-(3-(3-((4-methyl-4H-1,2,4-triazol-3-yl)methyl)oxetan-3-yl)phenyl)-3-oxo-7-(trifluoromethyl)isoindolin-5-yl)methyl)isoindoline-4-carbonitrile] | ≤ 100 | < 100
5 | CC(Cn1[nH]cnc1=O)c1cccc(NC(=O)c2cccc(C(F)(F)F)n2)c1 (stereo not drawn) [Compound 219, N-[3-[1-methyl-2-(3-oxo-1H-1,2,4-triazol-2-yl)ethyl]phenyl]-6-(trifluoromethyl)pyridine-2-carboxamide] | ≤ 10000 | 3000 to 10000
6 | C[C@H](Sc1nncn1C)c1ccnc(NC(=O)c2ccc(Cl)c(C(F)(F)F)n2)c1 [Compound 106, (S)-5-chloro-N-(4-(1-((4-methyl-4H-1,2,4-triazol-3-yl)thio)ethyl)pyridin-2-yl)-6-(trifluoromethyl)picolinamide] | ≤ 10000 | 1000 to 3000
7 | Cc1cc(C(=O)Nc2cccc(C3(Cc4nncn4C(F)F)COC3)c2)nc(C2CC2)n1 [Example 704, 2-cyclopropyl-N-(3-(3-((4-(difluoromethyl)-4H-1,2,4-triazol-3-yl)methyl)-oxetan-3-yl)phenyl)-6-methylpyrimidine-4-carboxamide] | ≤ 100 | < 100
8 | Cn1cnnc1CC(C)(C)c1cccc(NC(=O)c2ccnc(C(F)(F)F)n2)c1 [Compound 285, N-(3-(2-methyl-1-(4-methyl-4H-1,2,4-triazol-3-yl)propan-2-yl)phenyl)-2-(trifluoromethyl)pyrimidine-4-carboxamide] | ≤ 500 | 100 to 300
9 | Cn1cnnc1C[C@H](c1cccc(N2Cc3c(cccc3C(F)(F)F)C2=O)c1)C(F)F [Example 617, (R)-2-(3-(1,1-difluoro-3-(4-methyl-4H-1,2,4-triazol-3-yl)propan-2-yl)phenyl)-4-(trifluoromethyl)isoindolin-1-one] | ≤ 300 | 100 to 300
10 | C[C@@H]1CN(Cc2cc3c(c(C(F)(F)F)c2)CN(c2cccc(-c4c(-c5nncn5C)cnn4C)c2)C3=O)CCO1 [Compound 524, (R)-2-(3-(l-methyl-4-(4-methyl-4H-1,2,4-triazol-3-yl)-1H-pyrazol-5-yl)phenyl)-6-((2-methylmorpholino)methyl)-4-(trifluoromethyl)isoindolin-1-one] | ≤ 100 | < 100
11 | Cn1cnnc1CC1(c2cccc(N3Cc4c(cc(CN5CCN6C(=O)CCC6C5)cc4C(F)(F)F)C3=O)c2)COC1 (stereo not drawn) [Example 711, 2-((2-(3-(3-((4-methyl-4H-1,2,4-triazol-3-yl)methyl)oxetan-3-yl)phenyl)-3-oxo-7-(trifluoromethyl)isoindolin-5-yl)methyl)hexahydropyrrolo[1,2-a]pyrazin-6(2H)-one] | ≤ 100 | < 100
12 | CC(Sc1nncn1C)c1cc(NCCO)nc(N2Cc3c(cccc3C(F)(F)F)C2=O)c1 (stereo not drawn) [Compound 174, 2-[6-(2-hydroxyethylamino)-4-[1-[(4-methyl-1,2,4-triazol-3-yl)sulfanyl]ethyl]-2-pyridyl]-4-(trifluoromethyl)isoindolin-1-one] | ≤ 10000 | 1000 to 3000
13 | C[C@H](Cc1nncn1C)c1cccc(NC(=O)c2ccn(C)n2)c1 [Compound 197, (R)-1-methyl-N-(3-(1-(4-methyl-4H-1,2,4-triazol-3-yl)propan-2-yl)phenyl)-1H-pyrazole-3-carboxamide] | ≤ 10000 | 1000 to 3000
14 | Cn1cnnc1CC1(c2cccc(N3Cc4c(cc(CN5CC[C@@H](F)[C@H](F)C5)cc4C(F)(F)F)C3=O)c2)COC1 [Example 626b, 6-(((3R,4R)-3,4-difluoropiperidin-1-yl)methyl)-2-(3-(3-((4-methyl-4H-1,2,4-triazol-3-yl)methyl)oxetan-3-yl)phenyl)-4-(trifluoromethyl)isoindolin-1-one] | ≤ 100 | < 100
15 | CC(Cc1nncn1C)c1cc(F)cc(N2Cc3c(cccc3C(F)(F)F)C2=O)c1 (stereo not drawn) [Compound 281] | ≤ 500 | 100 to 300
16 | CC(Sc1nncn1C)c1cc(NC(=O)c2ccc3ccccc3n2)c2c(c1)C(C)(O)CC2 (stereo not drawn) [Compound 131, N-(1-hydroxy-1-methyl-6-(1-(4-methyl-4H-1,2,4-triazol-3-ylthio)ethyl)-2,3-dihydro-1H-inden-4-yl)quinoline-2-carboxamide] | ≤ 10000 | 3000 to 10000
17 | Cn1cnnc1CC1(c2cccc(N3Cc4c(cc(CN5Cc6ccc(Cl)cc6C5)cc4C(F)(F)F)C3=O)c2)COC1 [Example 659, 6-((5-chloroisoindolin-2-yl)methyl)-2-(3-(3-((4-methyl-4H-1,2,4-triazol-3-yl)methyl)oxetan-3-yl)phenyl)-4-(trifluoromethyl)isoindolin-1-one] | ≤ 100 | < 100
18 | C[C@H](Sc1nncn1C)c1cccc(NC(=O)c2cc(C(=O)N3CCC[C@H]3C)ccn2)c1 [Compound 142, N-(3-((S)-1-((4-methyl-4H-1,2,4-triazol-3-yl)thio)ethyl)phenyl)-4-((R)-2-methylpyrrolidine-1-carbonyl)picolinamide] | ≤ 10000 | > 10000
19 | CC(Cc1nccn1C)c1cccc(N2Cc3c(cccc3C(F)(F)F)C2=O)c1 (stereo not drawn) [Compound 267, 2-(3-(1-(1-methyl-1H-imidazol-2-yl)propan-2-yl)phenyl)-4-(trifluoromethyl)isoindolin-1-one] | ≤ 10000 | 3000 to 10000
20 | CN(c1cc2c(c(C(F)(F)F)c1)CN(c1cccc([C@@](C)(F)C(F)(F)c3nncn3C)c1)C2=O)[C@H]1CNC[C@@H]1F [Example 550, 6-(((3S,4S)-4-fluoropyrrolidin-3-yl)(methyl)amino)-2-(3-((R)-1,1,2-trifluoro-1-(4-methyl-4H-1,2,4-triazol-3-yl)propan-2-yl)phenyl)-4-(trifluoromethyl)iso-indolin-1-one] | ≤ 100 | < 100
21 | Cn1cnnc1CC1(c2cccc(N3Cc4c(cc(CN5CC[C@@H]6OCC[C@@H]6C5)cc4C(F)(F)F)C3=O)c2)COC1 (relative stereo) [Example 708, rel-6-[(3aR,7aS)-hexahydro-2H-furo[3,2-c]pyridin-5-ylmethyl]-2-(3-{3-[(4-methyl-1,2,4-triazol-3-yl)methyl]oxetan-3-yl}phenyl)-4-(trifluoromethyl)-3H-isoindol-1-one] | ≤ 100 | < 100
22 | C[C@H]1CCN(Cc2cc3c(c(C(F)(F)F)c2)CN(c2cccc(C4(Cc5nncn5C)COC4)c2)C3=O)C[C@H]1F [Example 639b, 6-(((3S,4S)-3-fluoro-4-methylpiperidin-1-yl)methyl)-2-(3-(3-((4-methyl-4H-1,2,4-triazol-3-yl)methyl)oxetan-3-yl)phenyl)-4-(trifluoromethyl)isoindolin-1-one] | ≤ 100 | < 100
23 | Cn1cnnc1CC1(c2cccc(N3Cc4c(cc(CN5CCC(F)(F)C(O)C5)cc4C(F)(F)F)C3=O)c2)COC1 (stereo not drawn) [Example 647, 6-((4,4-difluoro-3-hydroxypiperidin-1-yl)methyl)-2-(3-(3-((4-methyl-4H-1,2,4-triazol-3-yl)methyl)oxetan-3-yl)phenyl)-4-(trifluoromethyl)isoindolin-1-one] | ≤ 100 | < 100
24 | C[C@H](Sc1nncn1C)c1ccnc(NC(=O)c2csc(C(F)(F)F)n2)c1 [Compound 118, N-[4-[(1S)-1-[(4-methyl-1,2,4-triazol-3-yl)sulfanyl]ethyl]-2-pyridyl]-2-(trifluoromethyl)thiazole-4-carboxamide] | ≤ 10000 | 1000 to 3000
